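Cultured in 96-well plates, cells were exposed to test compound for 48 hours across five concentrations. At the GI50, growth is halved. At the TGI there is no net growth.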
Tests used:
Experiment in all cases: NCI tumour cell line growth inhibition, 48 h
786-0 renal = test system: 786-0 renal
A498 renal = test system: A498 renal
A549 NSCLC = test system: A549 NSCLC
ACHN renal = test system: ACHN renal
BT-549 breast = test system: BT-549 breast
CAKI-1 renal = test system: CAKI-1 renal
COLO 205 colon = test system: COLO 205 colon
DU-145 prostate = test system: DU-145 prostate
EKVX NSCLC = test system: EKVX NSCLC
HCC-2998 colon = test system: HCC-2998 colon
HCT-116 colon = test system: HCT-116 colon
HCT-15 colon = test system: HCT-15 colon
HL-60(TB) leukemia = test system: HL-60(TB) leukemia
HOP-62 NSCLC = test system: HOP-62 NSCLC
HOP-92 NSCLC = test system: HOP-92 NSCLC
HS 578T breast = test system: HS 578T breast
HT29 colon = test system: HT29 colon
IGROV1 ovarian = test system: IGROV1 ovarian
K-562 leukemia = test system: K-562 leukemia
KM12 colon = test system: KM12 colon
LOX IMVI melanoma = test system: LOX IMVI melanoma
M14 melanoma = test system: M14 melanoma
MALME-3M melanoma = test system: MALME-3M melanoma
MCF7 breast = test system: MCF7 breast
MDA-MB-231 breast = test system: MDA-MB-231 breast
MDA-MB-435 = test system: MDA-MB-435
MDA-MB-468 breast = test system: MDA-MB-468 breast
MOLT-4 leukemia = test system: MOLT-4 leukemia
NCI-H226 lung = test system: NCI-H226 lung
NCI-H23 lung = test system: NCI-H23 lung
NCI-H460 lung = test system: NCI-H460 lung
NCI-H522 lung = test system: NCI-H522 lung
NCI/ADR-RES ovarian = test system: NCI/ADR-RES ovarian
OVCAR-3 ovarian = test system: OVCAR-3 ovarian
OVCAR-4 ovarian = test system: OVCAR-4 ovarian
OVCAR-5 ovarian = test system: OVCAR-5 ovarian
OVCAR-8 ovarian = test system: OVCAR-8 ovarian
PC-3 prostate = test system: PC-3 prostate
RPMI-8226 leukemia = test system: RPMI-8226 leukemia
RXF 393 renal = test system: RXF 393 renal
SF-268 CNS = test system: SF-268 CNS
SF-295 CNS = test system: SF-295 CNS
SF-539 CNS = test system: SF-539 CNS
SK-MEL-2 melanoma = test system: SK-MEL-2 melanoma
SK-MEL-28 melanoma = test system: SK-MEL-28 melanoma
SK-MEL-5 melanoma = test system: SK-MEL-5 melanoma
SK-OV-3 ovarian = test system: SK-OV-3 ovarian
SN12C renal = test system: SN12C renal
SNB-19 CNS = test system: SNB-19 CNS
SNB-75 CNS = test system: SNB-75 CNS
SR leukemia = test system: SR leukemia
SW-620 colon = test system: SW-620 colon
T-47D breast = test system: T-47D breast
TK-10 renal = test system: TK-10 renal
U251 CNS = test system: U251 CNS
UACC-257 melanoma = test system: UACC-257 melanoma
UACC-62 melanoma = test system: UACC-62 melanoma
UO-31 renal = test system: UO-31 renal

Work on CN1CCN(c2ccc(Nc3nc(NCCNC(=O)c4ccc(C(F)(F)F)cc4)c4sccc4n3)cc2)CC1 yielded a GI50 (786-0 renal) of 3.24 µM, a TGI (786-0 renal) of 13.1 µM and a GI50 (A498 renal) of 17.1 µM. For the same compound, the TGI (A498 renal) was 31 µM, the GI50 (A549 NSCLC) was 11.7 µM and the TGI (A549 NSCLC) was 30.8 µM. The GI50 (ACHN renal) was 13.4 µM, the TGI (ACHN renal) was 27.9 µM and the GI50 (BT-549 breast) was 12.3 µM. It also gave a TGI (BT-549 breast) of 25.1 µM, a GI50 (CAKI-1 renal) of 9.24 µM and a TGI (CAKI-1 renal) of 21.7 µM. It also gave a GI50 (COLO 205 colon) of 7.4 µM, a TGI (COLO 205 colon) of 22.6 µM and a GI50 (DU-145 prostate) of 14.2 µM. For the same compound, the TGI (DU-145 prostate) was 27.9 µM, the GI50 (EKVX NSCLC) was 13.9 µM and the TGI (EKVX NSCLC) was 29.2 µM. For the same compound, the GI50 (HCC-2998 colon) was 4.55 µM, the TGI (HCC-2998 colon) was 15.5 µM and the GI50 (HCT-116 colon) was 4.25 µM. The TGI (HCT-116 colon) was 15.2 µM, the GI50 (HCT-15 colon) was 3.33 µM and the TGI (HCT-15 colon) was 13.9 µM. The GI50 (HL-60(TB) leukemia) was 3.49 µM, the TGI (HL-60(TB) leukemia) was 15.8 µM and the GI50 (HOP-62 NSCLC) was 15.1 µM. It also gave a TGI (HOP-62 NSCLC) of 30.7 µM, a GI50 (HOP-92 NSCLC) of 4.66 µM and a TGI (HOP-92 NSCLC) of 18.9 µM. It also gave a GI50 (HS 578T breast) of 4.19 µM, a TGI (HS 578T breast) of 23.2 µM and a GI50 (HT29 colon) of 3.53 µM. The TGI (HT29 colon) was 12.6 µM, the GI50 (IGROV1 ovarian) was 12.9 µM and the TGI (IGROV1 ovarian) was 26 µM. The GI50 (K-562 leukemia) was 2240 nM, the TGI (K-562 leukemia) was 8.8 µM and the GI50 (KM12 colon) was 14 µM. For the same compound, the TGI (KM12 colon) was 30.8 µM, the GI50 (LOX IMVI melanoma) was 2660 nM and the TGI (LOX IMVI melanoma) was 8.84 µM. The GI50 (M14 melanoma) was 1880 nM, the TGI (M14 melanoma) was 3.63 µM and the GI50 (MALME-3M melanoma) was 1770 nM. For the same compound, the TGI (MALME-3M melanoma) was 3.16 µM, the GI50 (MCF7 breast) was 4.06 µM and the TGI (MCF7 breast) was 15.7 µM. The GI50 (MDA-MB-231 breast) was 3.72 µM, the TGI (MDA-MB-231 breast) was 14.4 µM and the GI50 (MDA-MB-435) was 3.5 µM. It also gave a TGI (MDA-MB-435) of 11 µM, a GI50 (MDA-MB-468 breast) of 2260 nM and a TGI (MDA-MB-468 breast) of 9.44 µM. The GI50 (MOLT-4 leukemia) was 3.64 µM, the TGI (MOLT-4 leukemia) was 16.5 µM and the GI50 (NCI-H226 lung) was 14 µM. The TGI (NCI-H226 lung) was 29.8 µM, the GI50 (NCI-H23 lung) was 14.6 µM and the TGI (NCI-H23 lung) was 29.6 µM. For the same compound, the GI50 (NCI-H460 lung) was 13.3 µM, the TGI (NCI-H460 lung) was 28.7 µM and the GI50 (NCI-H522 lung) was 4.21 µM. For the same compound, the TGI (NCI-H522 lung) was 16.7 µM, the GI50 (NCI/ADR-RES ovarian) was 16.1 µM and the TGI (NCI/ADR-RES ovarian) was 39.5 µM. The GI50 (OVCAR-3 ovarian) was 14.4 µM, the TGI (OVCAR-3 ovarian) was 32 µM and the GI50 (OVCAR-4 ovarian) was 13.6 µM. The TGI (OVCAR-4 ovarian) was 48.1 µM, the GI50 (OVCAR-5 ovarian) was 15.1 µM and the TGI (OVCAR-5 ovarian) was 30.5 µM. The GI50 (OVCAR-8 ovarian) was 10.8 µM, the TGI (OVCAR-8 ovarian) was 28 µM and the GI50 (PC-3 prostate) was 10.4 µM. It also gave a TGI (PC-3 prostate) of 26.9 µM, a GI50 (RPMI-8226 leukemia) of 1880 nM and a TGI (RPMI-8226 leukemia) of 4.54 µM. For the same compound, the GI50 (RXF 393 renal) was 2670 nM, the TGI (RXF 393 renal) was 10.3 µM and the GI50 (SF-268 CNS) was 11.1 µM. The TGI (SF-268 CNS) was 31.4 µM, the GI50 (SF-295 CNS) was 3.52 µM and the TGI (SF-295 CNS) was 13.6 µM. It also gave a GI50 (SF-539 CNS) of 2120 nM, a TGI (SF-539 CNS) of 4.6 µM and a GI50 (SK-MEL-2 melanoma) of 15.7 µM. For the same compound, the TGI (SK-MEL-2 melanoma) was 29.7 µM, the GI50 (SK-MEL-28 melanoma) was 2130 nM and the TGI (SK-MEL-28 melanoma) was 3.99 µM. For the same compound, the GI50 (SK-MEL-5 melanoma) was 2300 nM, the TGI (SK-MEL-5 melanoma) was 5.99 µM and the GI50 (SK-OV-3 ovarian) was 17.3 µM. The TGI (SK-OV-3 ovarian) was 33.4 µM, the GI50 (SN12C renal) was 12.9 µM and the TGI (SN12C renal) was 25.7 µM. It also gave a GI50 (SNB-19 CNS) of 14.2 µM, a TGI (SNB-19 CNS) of 27.5 µM and a GI50 (SNB-75 CNS) of 6.55 µM. For the same compound, the TGI (SNB-75 CNS) was 20.7 µM, the GI50 (SR leukemia) was 1900 nM and the TGI (SR leukemia) was 5.21 µM. For the same compound, the GI50 (SW-620 colon) was 12.7 µM, the TGI (SW-620 colon) was 26.4 µM and the GI50 (T-47D breast) was 10.8 µM. The TGI (T-47D breast) was 31.1 µM, the GI50 (TK-10 renal) was 16.6 µM and the TGI (TK-10 renal) was 30.8 µM. For the same compound, the GI50 (U251 CNS) was 3.54 µM, the TGI (U251 CNS) was 13.8 µM and the GI50 (UACC-257 melanoma) was 1750 nM. The TGI (UACC-257 melanoma) was 3.39 µM, the GI50 (UACC-62 melanoma) was 2010 nM and the TGI (UACC-62 melanoma) was 4.79 µM. The GI50 (UO-31 renal) was 11.8 µM and the TGI (UO-31 renal) was 24.1 µM.

From PubChem BioAssay (NCI)
